US7468443B2, “Alkyl ether derivatives or salts thereof” (Toyama Chemical Co., Ltd., priority 2001, dated 2008)
Where a name gives a salt, the structure may show the parent alone.

What was measured:
sciatic nerve = experiment: Activity to accelerate nerve regeneration (cut sciatic nerve, silicone tube model); type: in vivo, SD strain rats; conditions: 1 mg/kg orally once a day from the seventh day; measured 21 days after cutting the nerve; regeneration distance relative to control group x100
Description: [Activity to Accelerate Nerve Regeneration]
The test was carried out according to the method described in J. Pharmaco. Exp. Ther., Vol. 290, page 348 (1999) and Neuroscience, vol. 88, page 257 (1999).
SD strain rats (male, aged 6 to 7 weeks, and weighing 170 to 280 g) were anesthetized with pentobarbital, and the left sciatic nerve of each rat was exposed in the femoral region, separated from the surrounding connective tissue, and then cut at a distal position which was about 1 cm apart from the gluteus. The ends of the nerve were inserted into a sterilized silicone tube with a length of 8 mm (inside diameter 1.3 mm, and outside diameter 1.8 mm) to a depth of 3.5 mm so that a space of 1 mm might be formed in the middle of the tube. The ends of the nerve were fixed and the nerve was put back to the muscular tissue together with the tube, after which the incised part was sutured. On the seventh day, each test compound dissolved in distilled water was orally administered in a dose of 1 mg/kg, and thereafter the test compound was administered once a day for 13 days in the same manner as above.
Twenty-one days after cutting the nerve, the sciatic nerve was exposed again under pentobarbital anesthesia, and the nerve in the femoral region and the crural region was separated from the surrounding connective tissues, after which the silicone tube at the cut part was removed. A stimulation electrode was set on the proximal side with respect to the cut position, and a recording electrode was set at the most distal position in the crural region. An electric stimulus (voltage: 2 V, delay: 1 msec, and duration: 100 μsec) was given, and an action potential induced by the stimulus was recorded. The recording electrode was gradually moved toward the proximal, and the distance between the cut position and the most distal position at which an action potential had been obtained was measured as regeneration distance. Only distilled water was administered to a control group.
The sciatic nerve regeneration rate of the test compound was calculated according to the following expression: (regeneration distance of drug-treated group)/(regeneration distance of control group)×100 (%)

[1] = tested on: cultured neurons from cerebral cortices; experiment: Activity to inhibit the neuronal death induced by Aβ (MTT assay); type: cell-based, Wistar strain rats; conditions: concentration of 1 μM; Aβ (25 to 35 residues) 20 μmol/L
Description: [Activity to Inhibit the Neuronal Death Induced by Aβ]
Inhibitory effect on the death of cultured neurons induced by Aβ was investigated by modifying the method described in Brain Res., vol. 639, page 240 (1994).
Cerebral cortices isolated from the brains of embryos (aged 17 to 19 days) of Wistar strain rats were sliced, and then neurons were dissociated by trypsin treatment. The cells were seeded into a 48-well tissue culture plate at a density of 1×10^5 cells per well and cultured under conditions of 5% CO2 and 37° C. on Dulbecco's modified Eagle's medium added B27 supplement (available from GIBCO BRL) and 3.6 mg/mL glucose.
On the 12th to 13th day of the culture, a potassium chloride solution was added to the medium to adjust the final concentration of potassium chloride to 25 mmol/L. Immediately after this addition, each test compound was added to the medium. After 24 hours, Aβ (a peptides comprising 25 to 35 residues) dissolved in distilled water was added to the medium at a final concentration of 20 μmol/L. After another 24 hours, the medium was replaced with Dulbecco's modified Eagle's medium added B27 supplement and 3.6 mg/mL glucose and test compound.
The inhibitory activity of the test compound against the death of cultured neurons was determined by inhibition against the decrease of reducing ability of MMT. That is, MTT assay [J. Immuno. Methods, vol. […] Inhibition rate=[(MTT assay value of a group treated with Aβ and the drug)−(MTT assay value of a group treated with Aβ)]/[MTT assay value of an untreated group−MTT assay value of a group treated with Aβ]×100 (%).

[2] = Metabolism in human liver microsomes; type: in vitro ADME; conditions: incubation at 37° C. for 60 minutes, pooled human liver microsomes, NADPH generating system
Description: [Metabolism in Human Liver Microsomes]
In a test tube were placed 50 μL of 100 mmol/L potassium phosphate buffer (pH 7.4) and 25 μL of 3 mg protein/mL pooled human liver microsomes (available from Gentest Inc.), and a solution prepared by blending 10 μL of 66 mmol/L sodium glucose 6-phosphate, 10 μL of 10 units/mL glucose 6-phosphate dehydrogenase, 10 μL of 26 mmol/L nicotinamide adenine dinucleotide phosphate oxidized form, 10 μL of 66 mmol/L magnesium chloride and 135 μL of 100 mmol/L potassium phosphate buffer (pH 7.4) was added thereto, followed by preincubation for 5 minutes. Thereto was added 50 μL of each test compound to a concentration of 6 μmol/L to initiate the reaction, and incubation was carried out at 37° C. for 60 minutes (final volume: 300 μL). The reaction was terminated by the addition of 600 μL of acetonitrile, followed by centrifugation at 12000×g and at 4° C. for 15 minutes. The supernatant was separated, concentrated by centrifugation under reduced pressure, and then subjected to high performance liquid chromatography, and the amount of the residual test compound after the metabolic reaction was determined.
The residual rate was calculated by the following equation: Residual rate (%)=[(peak area due to the test compound after 60 minutes of the reaction)/(peak area due to the test compound in the case of stopping the reaction by adding acetonitrile simultaneously with the addition of the test compound after the preincubation)]×100

PC12 cells = experiment: Activity to accelerate neurite outgrowth (NGF-treated PC12 cells); type: cell-based, rat; conditions: test compound 10 μM with 2.5s-NGF 40 ng/mL, 48 hours; neutrite outgrowth rate due to NGF taken as 100%
Description: [Activity to Accelerate Neurite Outgrowth]
PC12 cells [rat adrenomedullary chromaffinoma (NGF responders)] were cultured in an incubator (5% CO2, 37° C.) by using RPMI1640 medium (available from Nissui Pharmaceutical Co., Ltd.) containing 5% heat inactivated (56° C., 30 minutes) horse serum (available from Bio-Whittaker Inc.), 5% heat inactivated (56° C., 30 minutes) fetal calf serum (available from Sigma Chemical Co.) and 25 μg/ml gentamicin (available from GIBCO BRL).
The cultured PC12 cells were incubated at 37° C. for 30 minutes in phosphate-buffered physiological saline containing 1 mM EDTA, to be detached from a culture flask. The concentration of the cultured PC12 cells was adjusted to 5×10^4 cells/mL with RPMI1640 medium containing 1.5% heat inactivated horse serum, 1.5% heat inactivated fetal calf serum and 25 μg/ml gentamicin, and the resulting cell suspension was dispensed in 2 ml portions into 35-mm tissue culture dishes (mfd. by Falcon Inc.) coated with 0.01% polyornithine [dissolved in 150 mM borate buffer (pH 8.4)]. Then, 2.5s-NGF (available from Wako Pure Chemical Industries, Ltd.) [dissolved in phosphate-buffered physiological saline containing 0.1% bovine serum albumin] and each test compound were added to the medium at the same time so as to adjust their final concentrations to 40 ng/mL and 10 μM, respectively, followed by culturing under conditions of 5% CO2 and 37° C. After 48 hours of the culturing, cells were fixed in a 10% neutral formalin solution for 30 minutes, washed with phosphate-buffered physiological saline and distilled water, and then dried. […] The percentage of the number of cells having an neutrite extended to a length longer than the diameter of the cell body relative to the total number of cells observed (neutrite outgrowth rate) was calculated.
The activity to accelerate neutrite outgrowth was calculated according to the following expression as a neutrite outgrowth acceleration rate attained by the addition of each test compound, by taking a neutrite outgrowth rate due to NGF as 100%: (neutrite outgrowth rate attained by addition of each test compound)/(neutrite outgrowth rate due to NGF)×100 (%)

SMILES | sciatic nerve regeneration rate (sciatic nerve) | inhibition rate against decrease of MTT assay value induced by Aβ [1] | residual rate [2] | neutrite outgrowth acceleration rate (PC12 cells) | melting point
OC1CN(CCCOCCc2ccc3ccsc3c2)C1 [Example 4, 1-{3-[2-(1-benzothiophen-6-yl)ethoxy]propyl}-3-azetidinol hydrochloride] | 167% | 63% | 80% |  | 
OC1CN(CCCOCCc2cc3ccccc3s2)C1 [Example 6, 1-{3-[2-(1-benzothiophen-2-yl)ethoxy]propyl}-3-azetidinol hydrochloride] |  | 48% |  | 300% | 
OC1CN(CCOCCc2ccc3sccc3c2)C1 [Example 2, 1-{2-[2-(1-benzothiophen-5-yl)ethoxy]ethyl}-3-azetidinol hydrochloride] |  |  |  | 265% | 
COc1cc2ccoc2cc1CCOCCN1CCC(O)C1 (stereo not shown) [Example 51, 1-{2-[2-(5-methoxy-1-benzofuran-6-yl)ethoxy]ethyl}-3-pyrrolidinol oxalate] |  |  |  | 216% | 
OC1CCN(CCCOCCc2ccc3occc3c2)C1 (stereo not shown) [Example 61, 1-{3-[2-(1-benzofuran-5-yl)ethoxy]propyl}-3-pyrrolidinol hydrochloride] |  | 52% | 74% |  | 
OC1CN(CCCOCCc2ccc3sccc3c2)C1 [Example 10, 1-{3-[2-(1-benzothiophen-5-yl)ethoxy]propyl}-3-azetidinol hydrochloride] | 186% | 42% | 70% |  | 
OC1CN(CCCOCCc2csc3ccccc23)C1 [Example 14, 1-{3-[2-(1-benzothiophen-3-yl)ethoxy]propyl}-3-azetidinol hydrochloride] | 150% | 48% | 75% | 207% | 
OC1CN(CCOCCc2ccc3sccc3c2)C1 (as salt: hydrochloride) [Example 2, 1-{2-[2-(1-benzothiophen-5-yl)ethoxy]ethyl}-3-azetidinol hydrochloride] |  |  |  |  | 101 to 102 °C
O[C@H]1CCN(CCOCCc2ccc3sccc3c2)C1 [Example 31, (3S)-1-{2-[2-(1-benzothiophen-5-yl)ethoxy]ethyl}-3-pyrrolidinol oxalate] | 155% | 50% |  |  | 
O[C@@H]1CN(CCOCCc2ccc3sccc3c2)C[C@@H]1O [Example 71, (3R, 4S)-1-{2-[2-(1-benzothiophen-5-yl)ethoxy]ethyl}-3,4-pyrrolidinediol hydrochloride] |  |  | 80% | 183% | 
OC1CCN(CCOCCc2cccc3ccccc23)C1 (stereo not shown) [Example 29, 1-{2-[2-(1-naphthyl)ethoxy]-ethyl}-3-pyrrolidinol oxalate] |  |  |  | 212% | 
O[C@@H]1CCN(CCOCCc2ccc3sccc3c2)C1 [Example 33, (3R)-1-{2-[2-(1-benzothiophen-5-yl)ethoxy]ethyl}-3-pyrrolidinol oxalate] | 161% | 54% |  |  | 
NC1CCN(CCCOCCc2ccc3sccc3c2)C1 (stereo not shown) [Example 74, 1-{3-[2-(1-benzothiophen-5-yl)ethoxy]propyl}-3-pyrrolidinamine oxalate] |  | 50% | 71% | 246% | 
OC1CCN(CCOCCc2ccc3ccccc3c2)C1 (stereo not shown) [Example 69, 1-{2-[2-(2-naphthyl)ethoxy]ethyl}-3-pyrrolidinol oxalate] |  | 70% | 74% | 233% | 
CN(C)C1CCN(CCCOCCc2ccc3sccc3c2)C1 (stereo not shown) [Example 80, 1-{3-[2-(1-benzothiophen-5-yl)ethoxy]propyl}-N,N-dimethyl-3-pyrrolidinamine dihydrochloride] |  | 75% |  | 190% | 
OC1CN(CCCOCCc2ccc3sccc3c2)C1 [Example 81, 1-{3-[2-(1-benzothiophen-5-yl)ethoxy]propyl}-3-azetidinol 1/2 fumarate] |  |  |  | 190% | 
OC1CCN(CCCOCCc2ccc3sccc3c2)C1 (stereo not shown) [Example 59, 1-{3-[2-(1-benzothiophen-5-yl)ethoxy]propyl}-3-pyrrolidinol hydrochloride] |  |  |  | 241% | 
OC1CN(CCCOCCc2cccc3sccc23)C1 [Example 12, 1-{3-[2-(1-benzothiophen-4-yl)ethoxy]propyl}-3-azetidinol hydrochloride] | 142% |  | 83% | 299% | 
